Data: US20060034848A1, “Methods and compositions for treating Alzheimer's disease” (priority 2003, published 2006)
Entries after “also recorded” stand apart in the source; their conditions may differ.

Test system: LRP-CTF
Experiment: LRP C-terminal fragment (CTF) western after DAPT treatment
Type: cell-based, mouse
Details: N2a cells cotransfected with LC-myc and empty vector, BACE or catalytically inactive BACE; DAPT treatment for 12 h vs vehicle
Procedure: FIG. 11 depicts a LRP CTF western. […] Shown is the intensity of a representative blot out four experiments without DAPT treatment and two with DAPT treatment.
The proteins were transferred to immobilon-P membrane (Millipore, Bedford, Mass.). Staining was performed according to Licor odyssey instructions and LRP light chain was detected by rabbit anti-myc Ab with 680 gt anti rabbit secondary and visualized on the Licor odyssey.
After cotransfection of LRP with BACE we saw an increase of LRP-CTF as well as in non-treated cells and even more after DAPT treatment.

C[C@H](NC(=O)Cc1cc(F)cc(F)c1)C(=O)N[C@H](C(=O)OC(C)(C)C)c1ccccc1 [DAPT]
LRP-CTF 25 kDa band intensity (western blot): increase of the LRP-CTF 25 kDa band; also recorded: increase of CTF intensity
